Reference: patent US20080004348A1, “Naphthalene compounds” (LES LABORATOIRES SERVIER, priority 2006, published 2008)

Tests used:
MT2 receptor = biological target: T1, MT2 receptor (Homo sapiens, UniProt P49286); test: Melatonin MT2 receptor binding study, 2-[125I]-iodomelatonin; conditions: 2-[125I]-iodomelatonin radioligand
T1 sequence (P49286 1-362): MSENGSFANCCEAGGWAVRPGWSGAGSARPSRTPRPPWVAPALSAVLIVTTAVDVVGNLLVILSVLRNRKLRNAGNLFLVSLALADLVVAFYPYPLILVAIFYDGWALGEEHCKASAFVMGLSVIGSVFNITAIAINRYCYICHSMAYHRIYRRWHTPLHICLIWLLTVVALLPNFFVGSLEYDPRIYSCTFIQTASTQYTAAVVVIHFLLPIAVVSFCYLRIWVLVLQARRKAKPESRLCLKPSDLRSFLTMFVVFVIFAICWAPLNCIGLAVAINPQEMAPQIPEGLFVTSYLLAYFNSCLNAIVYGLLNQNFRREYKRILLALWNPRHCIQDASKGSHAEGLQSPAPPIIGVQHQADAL
Experimental: (§1) The MT1 or MT2 receptor binding experiments are carried out using 2-[^125I]-iodomelatonin as reference radioligand. The radioactivity retained is determined using a liquid scintillation counter.
(§2) Competitive binding experiments are then carried out in triplicate using the various test compounds. A range of different concentrations is tested for each compound. The results enable the binding affinities of the compounds tested (Ki) to be determined.

human 5-HT2C receptor = biological target: T2, human 5-HT2C receptor (Homo sapiens, UniProt P28335); test: Serotoninergic 5-HT2C receptor binding study, [3H]-mesulergine; conditions: membranes from CHO cells expressing human 5-HT2C
T2 construct: expressed in transfected cells
T2 sequence (P28335 33-458): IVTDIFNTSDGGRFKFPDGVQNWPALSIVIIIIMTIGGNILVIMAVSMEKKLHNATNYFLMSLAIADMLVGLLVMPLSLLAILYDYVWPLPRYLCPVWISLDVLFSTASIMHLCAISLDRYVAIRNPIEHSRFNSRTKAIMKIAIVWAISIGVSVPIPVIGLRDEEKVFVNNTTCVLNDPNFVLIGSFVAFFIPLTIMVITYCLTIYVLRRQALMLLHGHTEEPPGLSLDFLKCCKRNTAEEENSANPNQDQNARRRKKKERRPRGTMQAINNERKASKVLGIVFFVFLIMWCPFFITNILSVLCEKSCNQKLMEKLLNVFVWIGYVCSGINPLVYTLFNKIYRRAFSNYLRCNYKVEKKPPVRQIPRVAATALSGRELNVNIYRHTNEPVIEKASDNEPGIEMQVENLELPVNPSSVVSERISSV
Experimental: The affinity of the compounds for the human 5-HT2C receptor is evaluated on membrane preparations from CHO cells stably expressing that receptor.
Incubation is carried out in 50mM TRIS buffer, pH 7.4 containing 10 mM MgCl2 and 0.1% BSA, in the presence of [^3H]-mesulergine (InM) and 25 fmol/ml of receptor. Non-specific binding is determined in the presence of 10 μM mianserin.
The reaction is stopped by the addition of 50 mM TRIS buffer, pH 7.4 followed by a filtration step and 3 successive rinses: the radioactivity bound to the membranes remaining on the filters (GF/B pretreated with 0.1% PEI) is determined by liquid scintillation counting.

MT1 receptor = MT1 receptor (Homo sapiens, UniProt P48039); test: Melatonin MT1 receptor binding study, 2-[125I]-iodomelatonin; conditions: 2-[125I]-iodomelatonin radioligand
Chain of MT1 receptor (P48039 whole entry): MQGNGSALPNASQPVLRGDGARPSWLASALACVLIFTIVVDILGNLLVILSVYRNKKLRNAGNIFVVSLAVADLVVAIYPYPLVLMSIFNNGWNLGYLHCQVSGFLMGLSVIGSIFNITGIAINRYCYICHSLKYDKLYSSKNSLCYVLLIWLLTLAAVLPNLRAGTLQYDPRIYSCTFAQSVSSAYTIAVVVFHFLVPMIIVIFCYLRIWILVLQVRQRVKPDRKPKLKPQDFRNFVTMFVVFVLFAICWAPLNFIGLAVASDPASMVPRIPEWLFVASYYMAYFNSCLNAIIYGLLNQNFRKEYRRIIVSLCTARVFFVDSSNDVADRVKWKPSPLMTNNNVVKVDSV
Experimental: as §1, §2

Ki (MT2 receptor): 8.9 nM
Ki (human 5-HT2C receptor): 26 µM
Ki (MT1 receptor): 4.9 nM
Structure (SMILES): COCC(CNC(C)=O)c1cccc2ccc(OC)cc12 (stereo not drawn) [Example 6, N-[3-Methoxy-2-(7-methoxy-1-naphthyl)propyl]acetamide]
